Earlier results, collected in US20080318919A1, “Cefquinome Compositions and Methods of Their Use” (Intervet International B.V., priority 2005, published 2008).

Test system: Mannheimia haemolytica
Conditions: concentration that inhibits the growth of 90% of the target pathogen

Compound: CO/N=C(\C(=O)N[C@@H]1C(=O)N2C(C(=O)[O-])=C(C[n+]3cccc4c3CCCC4)CS[C@H]12)c1csc(N)n1 [cefquinome, Cefquinome]
- MIC90: about 0.25 μg/ml
